From patent publication US12174198B2, “Methods of characterizing condensate-associated characteristics of compounds and uses thereof” (Dewpoint Therapeutics, Inc., priority 2019, dated 2024)
Structures can show the parent of a compound that is named as a salt.

What was measured:
Type in all cases: physicochemical
[1] = molecular target: T1, PGL-3 condensates (Caenorhabditis elegans, UniProt G5EBV6); experiment: Fluorescence imaging of dye partitioning in PGL-3 condensates (I-in, I-out); settings: for Ratio of intensity inside:outside PGL-3 Condensates Day 1 / Ratio of intensity inside:outside PGL-3 Condensates Day 2 / Ratio of intensity inside:outside PGL-3 Condensates Average: I-in:I-out; for Ratio of intensity inside:outside PGL-3 Condensates Day 1 / Ratio of intensity inside:outside PGL-3 Condensates Day 2 / Ratio of intensity inside:outside PGL-3 Condensates Average / Intensity Inside with Dye Average / Intensity Inside with Dye 1 / Intensity Inside with Dye 2 / Intensity Inside with Dye 3 / Intensity Outside with Dye Average / Intensity Outside with Dye 1 / Intensity Outside with Dye 2 / Intensity Outside with Dye 3: 10 μM dye; for Ratio of intensity inside:outside PGL-3 Condensates Average: average of two days; for Intensity Inside with Dye Average / Intensity Inside with Dye 1 / Intensity Inside with Dye 2 / Intensity Inside with Dye 3 / Intensity Inside Dye-No Dye: inside PGL-3 condensate; for Intensity Inside with Dye Average / Intensity Inside with Dye 1 / Intensity Inside with Dye 2 / Intensity Inside with Dye 3 / Intensity Outside with Dye Average / Intensity Outside with Dye 1 / Intensity Outside with Dye 2 / Intensity Outside with Dye 3: 5 μM protein; for Intensity Inside with Dye Average / Intensity Outside with Dye Average: average of three images; for Intensity Inside with Dye Average / Intensity Inside with Dye 1 / Intensity Inside with Dye 2 / Intensity Inside with Dye 3 / Intensity Inside Dye-No Dye / Intensity Outside with Dye Average / Intensity Outside with Dye 1 / Intensity Outside with Dye 2 / Intensity Outside with Dye 3 / Intensity Outside (Dye-No Dye): one day of experiments; for Intensity Inside with Dye 1 / Intensity Outside with Dye 1: image 1; for Intensity Inside with Dye 2 / Intensity Outside with Dye 2: image 2; for Intensity Inside with Dye 3 / Intensity Outside with Dye 3: image 3; for Intensity Inside Dye-No Dye / Intensity Outside (Dye-No Dye): background corrected; for Intensity Outside with Dye Average / Intensity Outside with Dye 1 / Intensity Outside with Dye 2 / Intensity Outside with Dye 3 / Intensity Outside (Dye-No Dye): outside PGL-3 condensate
T1 sequence (G5EBV6 1-693): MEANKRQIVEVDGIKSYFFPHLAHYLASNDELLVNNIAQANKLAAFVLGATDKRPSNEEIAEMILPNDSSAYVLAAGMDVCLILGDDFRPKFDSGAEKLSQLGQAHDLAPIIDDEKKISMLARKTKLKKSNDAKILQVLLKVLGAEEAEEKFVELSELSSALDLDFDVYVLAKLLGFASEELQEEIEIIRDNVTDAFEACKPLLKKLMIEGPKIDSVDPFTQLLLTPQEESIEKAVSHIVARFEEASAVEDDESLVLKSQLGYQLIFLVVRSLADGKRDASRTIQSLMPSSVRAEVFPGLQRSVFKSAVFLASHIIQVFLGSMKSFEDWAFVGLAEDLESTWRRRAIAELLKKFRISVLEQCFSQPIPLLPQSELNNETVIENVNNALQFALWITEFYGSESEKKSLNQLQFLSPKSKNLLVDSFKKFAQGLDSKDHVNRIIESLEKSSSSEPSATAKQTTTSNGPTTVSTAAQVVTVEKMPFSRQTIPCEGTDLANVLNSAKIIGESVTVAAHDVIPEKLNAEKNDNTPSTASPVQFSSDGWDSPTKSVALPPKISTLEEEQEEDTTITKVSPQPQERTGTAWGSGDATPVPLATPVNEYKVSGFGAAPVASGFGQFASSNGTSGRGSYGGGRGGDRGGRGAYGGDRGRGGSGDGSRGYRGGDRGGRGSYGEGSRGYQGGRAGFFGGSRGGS
Procedure, shortened: (§1)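 Partitioning read by spinning-disk confocal imaging (60× oil, dye-specific exposure 1-1000 ms) of condensates formed from 5 μM protein (FUS-SNAP or untagged PGL-3) plus 10 μM dye, 75 mM KCl, 1% DMSO, pH 7.25. Background-subtracted intensities inside and beside one condensate per image, three images averaged.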

[2] = molecular target: T2, FUS-SNAP condensates (Homo sapiens, UniProt P35637); experiment: Fluorescence imaging of dye partitioning in FUS-SNAP condensates (I-in, I-out); settings: for Ratio of intensity inside:outside FUS-SNAP Condensates Day 1 / Ratio of intensity inside:outside FUS-SNAP Condensates Day 2 / Ratio of intensity inside:outside FUS-SNAP Condensates Average: I-in:I-out; for Ratio of intensity inside:outside FUS-SNAP Condensates Day 1 / Ratio of intensity inside:outside FUS-SNAP Condensates Day 2 / Ratio of intensity inside:outside FUS-SNAP Condensates Average / Intensity Inside with Dye Average / Intensity Inside with Dye 1 / Intensity Inside with Dye 2 / Intensity Inside with Dye 3 / Intensity Outside with Dye Average / Intensity Outside with Dye 1 / Intensity Outside with Dye 2 / Intensity Outside with Dye 3: 10 μM dye; for Ratio of intensity inside:outside FUS-SNAP Condensates Average: average of two days; for Intensity Inside with Dye Average / Intensity Inside with Dye 1 / Intensity Inside with Dye 2 / Intensity Inside with Dye 3 / Intensity Inside Dye-No Dye: inside FUS-SNAP condensate; for Intensity Inside with Dye Average / Intensity Inside with Dye 1 / Intensity Inside with Dye 2 / Intensity Inside with Dye 3 / Intensity Outside with Dye Average / Intensity Outside with Dye 1 / Intensity Outside with Dye 2 / Intensity Outside with Dye 3: 5 μM protein; for Intensity Inside with Dye Average / Intensity Outside with Dye Average: average of three images; for Intensity Inside with Dye Average / Intensity Inside with Dye 1 / Intensity Inside with Dye 2 / Intensity Inside with Dye 3 / Intensity Inside Dye-No Dye / Intensity Outside with Dye Average / Intensity Outside with Dye 1 / Intensity Outside with Dye 2 / Intensity Outside with Dye 3 / Intensity Outside (Dye-No Dye): one day of experiments; for Intensity Inside with Dye 1 / Intensity Outside with Dye 1: image 1; for Intensity Inside with Dye 2 / Intensity Outside with Dye 2: image 2; for Intensity Inside with Dye 3 / Intensity Outside with Dye 3: image 3; for Intensity Inside Dye-No Dye / Intensity Outside (Dye-No Dye): background corrected; for Intensity Outside with Dye Average / Intensity Outside with Dye 1 / Intensity Outside with Dye 2 / Intensity Outside with Dye 3 / Intensity Outside (Dye-No Dye): outside FUS-SNAP condensate
T2 sequence (P35637 1-526): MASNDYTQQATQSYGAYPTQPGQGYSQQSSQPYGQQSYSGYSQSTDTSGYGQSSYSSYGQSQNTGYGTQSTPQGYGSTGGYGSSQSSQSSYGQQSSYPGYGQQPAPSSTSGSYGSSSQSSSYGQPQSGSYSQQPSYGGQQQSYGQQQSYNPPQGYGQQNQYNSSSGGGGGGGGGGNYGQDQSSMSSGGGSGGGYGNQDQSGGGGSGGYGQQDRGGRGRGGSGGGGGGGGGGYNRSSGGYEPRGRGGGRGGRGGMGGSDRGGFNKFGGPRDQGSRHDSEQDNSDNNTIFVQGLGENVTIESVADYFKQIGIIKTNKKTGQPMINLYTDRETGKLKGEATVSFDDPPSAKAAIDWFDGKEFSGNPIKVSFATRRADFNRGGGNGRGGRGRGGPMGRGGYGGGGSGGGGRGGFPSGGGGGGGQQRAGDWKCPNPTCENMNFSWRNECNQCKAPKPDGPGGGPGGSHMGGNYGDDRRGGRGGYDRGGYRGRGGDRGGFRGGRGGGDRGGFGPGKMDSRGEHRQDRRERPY
Procedure, shortened: as §1

[3] = test system: FUS-SNAP condensates versus PGL-3 condensates; experiment: Condensate preference: ratio of FUS-SNAP I-in:I-out to PGL-3 I-in:I-out; settings: average FUS-SNAP I-in:I-out divided by average PGL-3 I-in:I-out
Procedure, shortened: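 Values compare FUS-SNAP against PGL-3 condensates through their I-in:I-out ratios. Each ratio is the average intensity within the condensates over that outside them, averaged across two separate days.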

Ratio of intensity inside:outside PGL-3 Condensates Day 1 [1]	Ratio of intensity inside:outside PGL-3 Condensates Day 2 [1]	Ratio of intensity inside:outside PGL-3 Condensates Average [1]	Intensity Inside with Dye Average [1]	Intensity Inside with Dye 1 [1]	Intensity Inside with Dye 2 [1]	Intensity Inside with Dye 3 [1]	Intensity Inside Dye-No Dye [1]	Intensity Outside with Dye Average [1]	Intensity Outside with Dye 1 [1]	Intensity Outside with Dye 2 [1]	Intensity Outside with Dye 3 [1]	Intensity Outside (Dye-No Dye) [1]	Ratio of intensity inside:outside FUS-SNAP Condensates Day 1 [2]	Ratio of intensity inside:outside FUS-SNAP Condensates Day 2 [2]	Ratio of intensity inside:outside FUS-SNAP Condensates Average [2]	Intensity Inside with Dye Average [2]	Intensity Inside with Dye 1 [2]	Intensity Inside with Dye 2 [2]	Intensity Inside with Dye 3 [2]	Compound	other results
1.8	1.9	1.9	13067.5	12579.6	14061.0	12561.8	12966.0	7117.9	7184.0	7157.1	7012.6	7016.4	6.1	5.9	6.0	4956.7	4695.6	5663.6	4511.0	O=C([O-])c1ccccc1C1=c2cc3c4c(c2Oc2c1cc1c5c2CCCN5CCC1)CCC[N+]=4CCC3 [Dye 17, Rhodamine 101 inner salt]	Intensity Inside Dye-No Dye [2]: 4857.1; Intensity Outside with Dye Average [2]: 902.4; Intensity Outside with Dye 1 [2]: 808.3; Intensity Outside with Dye 2 [2]: 1011.5; Intensity Outside with Dye 3 [2]: 887.5; Intensity Outside (Dye-No Dye) [2]: 802.5; Ratio of FUS-SNAP:PGL-3 [3]: 3.2
3.4	2.4	2.9	730.8	714.9	700.1	777.4	604.6	309.4	301.3	294.6	332.2	178.7	7.6	11.0	9.3	15051.4	15394.5	13908.5	15851.1	N#CC1=c2cc3c4c(c2Oc2c1cc1c5c2CCCN5CCC1)CCC[N+]=4CCC3 [Dye 18, Rhodamine 800]	Intensity Inside Dye-No Dye [2]: 14919.5; Intensity Outside with Dye Average [2]: 2092.2; Intensity Outside with Dye 1 [2]: 2064.2; Intensity Outside with Dye 2 [2]: 1988.2; Intensity Outside with Dye 3 [2]: 2224.3; Intensity Outside (Dye-No Dye) [2]: 1959.9; Ratio of FUS-SNAP:PGL-3 [3]: 3.2

Compound	Ratio of intensity inside:outside PGL-3 Condensates Day 1 [1]	Ratio of intensity inside:outside PGL-3 Condensates Day 2 [1]	Ratio of intensity inside:outside PGL-3 Condensates Average [1]	Intensity Inside with Dye Average [1]	Intensity Inside with Dye 1 [1]	Intensity Inside with Dye 2 [1]	Intensity Inside with Dye 3 [1]	Intensity Inside Dye-No Dye [1]	Intensity Outside with Dye Average [1]	Intensity Outside with Dye 1 [1]	Intensity Outside with Dye 2 [1]	Intensity Outside with Dye 3 [1]	Intensity Outside (Dye-No Dye) [1]	Ratio of intensity inside:outside FUS-SNAP Condensates Day 1 [2]	Ratio of intensity inside:outside FUS-SNAP Condensates Day 2 [2]	Ratio of intensity inside:outside FUS-SNAP Condensates Average [2]	Intensity Inside with Dye Average [2]	Intensity Inside with Dye 1 [2]	Intensity Inside with Dye 2 [2]	Intensity Inside with Dye 3 [2]	other results
CCN(CC)c1ccc2c(-c3ccccc3C(=O)O)c3ccc(=[N+](CC)CC)cc-3oc2c1 [Dye 16, Rhodamine B]	1.4	1.3	1.4	5776.5	5570.5	6179.8	5579.3	5675.0	4088.7	3907.8	4226.6	4131.5	3987.2	4.4	3.8	4.1	2041.4	2154.5	2074.7	1895.0	Intensity Inside Dye-No Dye [2]: 1941.7; Intensity Outside with Dye Average [2]: 540.2; Intensity Outside with Dye 1 [2]: 546.8; Intensity Outside with Dye 2 [2]: 508.3; Intensity Outside with Dye 3 [2]: 565.6; Intensity Outside (Dye-No Dye) [2]: 440.3; Ratio of FUS-SNAP:PGL-3 [3]: 3.0
